Patent US6897224B2, “Quinoline and isoquinoline derivatives, a process for their production and their use as inflammation inhibitors” (Schering AG, priority 2002, dated 2005)

Legend:
[1] = target: glucocorticoid receptor (GR) (Homo sapiens, UniProt P04150); assay: biochemical
Source text: The binding of the substances to the glucocorticoid receptor (GR) and other steroid hormone receptors (mineral corticoid receptor (MR), progesterone receptor (PR) and androgen receptor (AR)) is examined with the aid of recombinantly produced receptors. Cytosol preparations of Sf9 cells, which had been infected with recombinant baculoviruses that code for the GR, are used for the binding studies.

[2] = target: T1, mineral corticoid receptor (MR) (Homo sapiens, UniProt P08235); assay: Binding to the mineral corticoid receptor, recombinantly produced receptor
T1 construct: made in house
T1 sequence (P08235 1-984): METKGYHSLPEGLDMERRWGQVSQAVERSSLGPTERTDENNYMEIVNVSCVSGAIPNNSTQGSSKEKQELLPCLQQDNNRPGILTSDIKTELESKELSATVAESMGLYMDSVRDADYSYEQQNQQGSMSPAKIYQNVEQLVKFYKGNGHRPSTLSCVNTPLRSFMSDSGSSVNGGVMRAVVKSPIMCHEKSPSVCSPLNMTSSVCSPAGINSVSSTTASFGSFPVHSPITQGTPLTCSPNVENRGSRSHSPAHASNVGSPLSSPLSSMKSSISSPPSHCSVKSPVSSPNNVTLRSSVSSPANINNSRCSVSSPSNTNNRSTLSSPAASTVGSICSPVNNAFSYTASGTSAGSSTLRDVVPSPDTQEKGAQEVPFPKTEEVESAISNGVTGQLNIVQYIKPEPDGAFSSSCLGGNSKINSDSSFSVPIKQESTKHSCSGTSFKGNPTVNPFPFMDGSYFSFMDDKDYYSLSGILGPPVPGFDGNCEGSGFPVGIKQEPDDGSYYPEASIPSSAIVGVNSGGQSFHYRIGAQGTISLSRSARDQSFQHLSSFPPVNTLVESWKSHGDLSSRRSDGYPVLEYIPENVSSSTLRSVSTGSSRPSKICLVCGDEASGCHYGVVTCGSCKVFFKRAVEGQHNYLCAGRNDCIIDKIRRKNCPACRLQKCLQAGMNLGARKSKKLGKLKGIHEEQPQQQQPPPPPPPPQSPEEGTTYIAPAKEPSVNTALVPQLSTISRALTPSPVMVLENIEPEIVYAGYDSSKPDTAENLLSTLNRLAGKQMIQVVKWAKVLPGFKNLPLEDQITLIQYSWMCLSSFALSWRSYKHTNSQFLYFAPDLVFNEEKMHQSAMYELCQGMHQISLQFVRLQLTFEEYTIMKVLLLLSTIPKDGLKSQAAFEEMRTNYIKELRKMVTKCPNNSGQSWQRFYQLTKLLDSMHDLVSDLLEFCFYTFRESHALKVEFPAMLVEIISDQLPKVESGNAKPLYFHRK

[3] = target: T2, progesterone receptor (PR) (Homo sapiens, UniProt P06401); assay: Binding to the progesterone receptor, recombinantly produced receptor
T2 construct: made in house
T2 sequence (P06401 1-933): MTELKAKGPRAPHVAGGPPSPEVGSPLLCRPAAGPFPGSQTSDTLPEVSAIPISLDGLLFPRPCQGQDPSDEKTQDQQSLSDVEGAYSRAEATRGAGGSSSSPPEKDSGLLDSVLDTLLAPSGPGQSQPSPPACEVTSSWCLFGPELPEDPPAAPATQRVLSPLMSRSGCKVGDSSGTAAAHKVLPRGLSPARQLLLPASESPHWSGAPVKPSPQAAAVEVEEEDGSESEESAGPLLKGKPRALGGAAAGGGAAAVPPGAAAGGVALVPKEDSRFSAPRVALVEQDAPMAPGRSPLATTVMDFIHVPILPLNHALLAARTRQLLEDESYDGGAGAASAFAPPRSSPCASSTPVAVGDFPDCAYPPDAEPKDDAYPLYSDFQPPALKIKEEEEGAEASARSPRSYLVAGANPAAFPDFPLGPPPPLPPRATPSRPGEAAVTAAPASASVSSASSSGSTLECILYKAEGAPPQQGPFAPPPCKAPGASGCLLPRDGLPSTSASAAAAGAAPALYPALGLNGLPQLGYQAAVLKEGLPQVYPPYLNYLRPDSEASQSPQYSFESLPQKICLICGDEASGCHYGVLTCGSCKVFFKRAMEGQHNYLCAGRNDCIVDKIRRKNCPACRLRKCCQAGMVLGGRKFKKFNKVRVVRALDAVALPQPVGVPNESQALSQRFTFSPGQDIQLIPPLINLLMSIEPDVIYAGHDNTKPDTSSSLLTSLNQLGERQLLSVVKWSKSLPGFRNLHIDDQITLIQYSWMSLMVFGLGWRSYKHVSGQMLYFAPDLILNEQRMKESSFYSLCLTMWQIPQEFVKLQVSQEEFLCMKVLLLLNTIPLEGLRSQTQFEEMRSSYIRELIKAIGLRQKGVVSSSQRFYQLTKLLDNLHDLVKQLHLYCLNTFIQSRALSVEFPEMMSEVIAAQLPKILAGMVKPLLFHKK

androgen receptor (AR) = target: T3, androgen receptor (AR) (Homo sapiens, UniProt P10275); assay: Binding to the androgen receptor, recombinantly produced receptor
T3 construct: made in house
T3 sequence (P10275 1-920): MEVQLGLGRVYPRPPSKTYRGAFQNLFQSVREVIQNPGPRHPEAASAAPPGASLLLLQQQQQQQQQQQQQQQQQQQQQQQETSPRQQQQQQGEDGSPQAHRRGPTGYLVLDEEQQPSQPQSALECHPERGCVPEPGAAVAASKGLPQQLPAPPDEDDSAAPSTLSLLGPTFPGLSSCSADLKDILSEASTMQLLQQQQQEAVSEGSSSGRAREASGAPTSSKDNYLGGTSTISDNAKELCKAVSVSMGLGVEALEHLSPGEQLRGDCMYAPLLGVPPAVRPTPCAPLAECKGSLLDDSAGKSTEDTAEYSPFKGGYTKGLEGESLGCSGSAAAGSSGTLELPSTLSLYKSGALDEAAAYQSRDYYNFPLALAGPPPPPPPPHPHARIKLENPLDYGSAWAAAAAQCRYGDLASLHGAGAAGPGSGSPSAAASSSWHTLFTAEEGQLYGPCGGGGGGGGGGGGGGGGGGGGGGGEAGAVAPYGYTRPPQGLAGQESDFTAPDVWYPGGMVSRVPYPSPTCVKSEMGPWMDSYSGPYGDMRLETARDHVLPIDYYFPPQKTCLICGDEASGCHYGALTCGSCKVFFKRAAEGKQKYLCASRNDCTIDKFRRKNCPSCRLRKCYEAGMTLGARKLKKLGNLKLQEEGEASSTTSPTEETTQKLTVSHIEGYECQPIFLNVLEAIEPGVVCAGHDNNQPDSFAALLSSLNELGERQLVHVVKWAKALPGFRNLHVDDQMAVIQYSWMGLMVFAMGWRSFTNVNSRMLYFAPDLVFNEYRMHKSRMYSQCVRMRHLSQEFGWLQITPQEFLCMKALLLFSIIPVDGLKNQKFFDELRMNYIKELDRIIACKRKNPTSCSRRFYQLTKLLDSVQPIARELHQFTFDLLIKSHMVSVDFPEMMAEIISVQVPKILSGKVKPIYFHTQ

Chain of glucocorticoid receptor (GR) (P04150 whole entry, species assumed): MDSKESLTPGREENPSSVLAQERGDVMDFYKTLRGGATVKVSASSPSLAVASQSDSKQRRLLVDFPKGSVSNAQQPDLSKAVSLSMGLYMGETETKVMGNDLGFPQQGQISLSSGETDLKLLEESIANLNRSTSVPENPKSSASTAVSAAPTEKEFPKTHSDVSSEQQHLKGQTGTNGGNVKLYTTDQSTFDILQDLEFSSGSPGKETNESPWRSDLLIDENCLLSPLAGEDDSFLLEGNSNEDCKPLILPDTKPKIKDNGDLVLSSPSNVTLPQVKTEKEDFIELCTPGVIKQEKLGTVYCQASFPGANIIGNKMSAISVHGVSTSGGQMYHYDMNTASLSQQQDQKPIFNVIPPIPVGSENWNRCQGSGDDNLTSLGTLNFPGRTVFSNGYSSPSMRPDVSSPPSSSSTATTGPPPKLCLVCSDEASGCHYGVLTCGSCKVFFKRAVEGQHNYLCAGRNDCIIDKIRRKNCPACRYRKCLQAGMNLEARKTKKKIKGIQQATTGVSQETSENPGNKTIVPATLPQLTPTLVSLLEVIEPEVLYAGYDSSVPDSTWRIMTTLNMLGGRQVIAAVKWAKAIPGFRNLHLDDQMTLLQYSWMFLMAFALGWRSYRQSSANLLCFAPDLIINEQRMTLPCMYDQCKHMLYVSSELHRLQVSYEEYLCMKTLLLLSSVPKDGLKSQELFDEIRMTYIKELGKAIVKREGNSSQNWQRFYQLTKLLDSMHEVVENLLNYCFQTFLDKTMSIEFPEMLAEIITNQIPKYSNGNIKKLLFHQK

## CC(C)(CC(O)(CNc1cccc2ncccc12)C(F)(F)F)c1cc(F)ccc1O (stereo not shown) [Example 4]
[1]
  IC50: 0.0006 to 0.0013 µM
[2]
  IC50: > 1 µM
[3]
  IC50: > 1 µM
Androgen receptor (AR)
  IC50: > 1 µM
